Entries after “also recorded” stand apart in the source; their conditions may differ.
Assays:
[1] = system: primary, AID expressing B-cells; assay: Live cell imaging of nuclei fragmentation; type: cell-based, mice; settings: 100 nM, individual cell imaged at 20 minute intervals
Description: FIG. 22 depicts live cell imaging of primary, AID expressing B-cells treated with 100 nM C-1523. Histone H2B-EGFP transgenic mice were used as a source of B-cells to facilitate imaging of chromatin. The top panel depicts an individual cell imaged at 20 minute intervals for 460 minutes. Images show chromosomal fragmentation commencing at 120 minutes. Data in the bottom panels depict quantification of live cell imaging depicting the fraction of cells that commence fragmentation at each time point (bottom left panel) and the cumulative fraction of fragmented nuclei (bottom right panel).
AID+/+ or AID−/− B-cells were cultured with 100 nM and cell cycle profiles were determined by propidium iodide staining and flow cyotmetry at intervals up to 96 hours. Non-activated (CD40) cells were used as a negative control; activated cells treated with the microtuble poison colcemid (ACT+colcemid) were used as a positive control. Nuclei fragmentation analysis of primary, AID expressing B-cells treated with 100 nM C-1523 was conducted (FIG. 22).

mES cells = assay: DR-GFP reporter assay (HR repair of endonuclease generated DSB); type: cell-based, mouse; settings: 100 nM, compared to DMSO
U2OS cells = assay: as above; type: cell-based, human; settings: 100 nM or 1 μM
[2] = system: AID−/− or p53−/− primary mouse B cells; assay: Micronuclei assay; type: cell-based; settings: 100 nM, 3 days
[3] = system: primary splenic B-cells from WT (AID-expressing) mice; assay: Expansion and viability of activated primary splenic B-cells
CCRF-SB cells = assay: Viability of human B cell tumor cell line (Trypan Blue); type: cell-based
Description: (§1) FIG. 15A depicts an analysis of primary WT (AID+/+, closed markers) and AID−/− (open markers) murine B cell proliferation under activating conditions (αCD40 and IL-4 on days 0 and 2) and treated with the indicated doses of C-1523 for 4 days. Measurement of cell proliferation was determined by Trypan Blue staining and counting of viable, non-staining, cells via hemocytometer. Data are represented as the mean cell count for each condition. FIG. 15B depicts data from experiments in which primary B cells from A were stained with PI on day 4 and analyzed via flow cytometry for the percentage of cells that were non-viable, PI-positive (PI+). FIG. 15C depicts RT-PCR analysis of AID expression in cultured human cell lines. Water (H2O) and RNA from HEK293T cells were employed as negative controls for template and AID expression, respectively, and human activated B lymphocyte RNA (Stim B) was used as a positive control. GAPDH expression was included as a loading control. FIG. 15D depicts viability analysis of CCRF-SB, MEC-1, and MEC-2 cells after 6 days in culture with the indicated concentrations of C-1523, 150 μM DIDS, or DMSO vehicle. Viability was determined by Trypan Blue staining and counting via hemocytometer. FIG. 15E depicts representative immunofluorescence images of phosphorylated γH2AX (green) and nuclei (DAPI, blue) in primary murine splenic B cells from AID−/− (left) or AID+/+ (WT, right) mice. Cells were activated with αCD40 and IL-4 and treated with 100 nM C-1523 for 3 d. Scale bars, 10 μM. FIG. 15F depicts quantitation of foci observed in AID−/− and WT cells represented in FIG. 15E. Data were grouped into categories of cells with low (1-2 foci per nucleus), moderate (3-10 foci per nucleus), or high (>10 foci per nucleus) amounts of DNA damage. Error bars represent the SEM for three independent experiments.
(§2) FIG. 23 depicts graphs of viability analysis for human cancer cell lines treated with C-1523. The acute lymphoblastic leukemia (ALL) line CCRF-SB and the chronic lymphocytic leukemia lines MEC1 and MEC2 were treated with vehicle (DMSO) or 100 nM C-1523, and viability was measured by Tyrpan blue exclusion. All three lines express AID and are sensitive to C-1523 treatment.
(§3) The effect of C-1523 on the viability of AID-expressing human B cell tumor cell lines was further tested ([…]). CCRF-SB is an acute lymphoblastic leukemia cell line derived from a buffy coat preparation (Foley et al., 1968). MEC-1 and MEC-2 are cell lines derived from a patient with chronic lymphocytic leukemia at two different timepoints (before and after fludarabine and rituximab therapy) (Stacchini et al., 1999). C-1523 was tested in these cell lines over a dose range from 1 to 1000 nM, in log increments, and compared to 150 μM DIDS. […] Biphasic or hormetic responses for small molecules can reflect a number of biochemical/biological mechanisms (Calabrese, 2013).
(§4) Cell lines and cell culture. […] Immunofluorescence.

MEC-1 cells = assay: as above; type: cell-based
Description: as §1, §2, §3, §4

MEC-2 cells = assay: as above; type: cell-based
Description: as §1, §2, §3, §4

[4] = system: primary WT mouse splenic B cells; assay: H2AX foci immunostaining in activated B-lymphocytes; type: cell-based; settings: 100 nM
Description: FIG. 15A depicts an analysis of primary WT (AID+/+, closed markers) and AID−/− (open markers) murine B cell proliferation under activating conditions (αCD40 and IL-4 on days 0 and 2) and treated with the indicated doses of C-1523 for 4 days. Measurement of cell proliferation was determined by Trypan Blue staining and counting of viable, non-staining, cells via hemocytometer. Data are represented as the mean cell count for each condition. FIG. 15B depicts data from experiments in which primary B cells from A were stained with PI on day 4 and analyzed via flow cytometry for the percentage of cells that were non-viable, PI-positive (PI+). FIG. 15C depicts RT-PCR analysis of AID expression in cultured human cell lines. Water (H2O) and RNA from HEK293T cells were employed as negative controls for template and AID expression, respectively, and human activated B lymphocyte RNA (Stim B) was used as a positive control. GAPDH expression was included as a loading control. […] Viability was determined by Trypan Blue staining and counting via hemocytometer. […] FIG. 15F depicts quantitation of foci observed in AID−/− and WT cells represented in FIG. 15E. […]
To determine whether the cytotoxic effect of C-1523 in AID-expressing cells was associated with DNA damage overload, the accumulation of unrepaired AID-initiated DSBs was measured by H2AX immunoostaining, in activated mouse B-lymphocytes (FIGS. 15E, 15F). […]

B cells = assay: Western Blot of apoptotic markers PARP-1 and caspase-9; type: cell-based
Description: Cell death mediated by C-1523 is p53-dependent. It was hypothesized that AID-dependent cytotoxicity induced by C-1523 would be associated with p53-mediated apoptosis. To test the importance of p53, a central regulator of cellular responses to DNA damage, viability was measured in mouse primary B-cells from Trp53+/+ versus Trp53−/− mice following exposure to C-1523. […] Caspase 3 activation, a marker of apoptotic cell death, was measured in C-1523 treated B-cells. B-cells were stained with an antibody that recognizes cleaved, activated caspase-3 (AC3) and the number of AC3-positive cells was measured via immunofluorescence microscopy. Following 10 Gy of ionizing irradiation Trp53+/+(WT), but not Trp53−/− cultures show a >30-fold increase in the percentage of AC3+ cells, confirming Trp53 dependent apoptosis in these cells after DNA damage. […] In order to more completely rule out apoptosis as the mode of cell death following C-1523 treatment in B cells, the expression of other common markers of apoptotic induction was examined via Western Blot.

CC(=O)Nc1ccc(/C=C/c2ccc(NC(=S)NC(C)C)cc2S(=O)(=O)O)c(S(=O)(=O)O)c1 [C-1523, (E)-5-acetamido-2-(4-(3-isopropylthioureido)-2-sulfonatostyryl)benzenesulfonate]
time at which chromosomal fragmentation commences [1]: 120 min
reduction of percentage of GFP-positive cells (mES cells): about 40%
change in GFP-positive cells (U2OS cells): no significant change
fraction of micronuclei [2]: no increase in the fraction of micronuclei
dependence of induced cell death [3]: both AID and Trp53 dependent
shape of dose response ([3]; 1 to 1000 nM): biphasic response
B-cell viability ([3]; 50, 100, 150, 200, or 250 nM, 3 days, Trypan blue): dose-dependent reduction in B-cell viability; also recorded: dose dependent reduction in B-cell viability
cellular expansion ([3]; 50-250 nM, four days, αCD40+IL-4 activation): selectively suppressed cellular expansion
PI+ cells (cell death) ([3]; day 4, flow cytometry): significant increase in PI+ cells
sensitivity (viability) (CCRF-SB cells; 100 nM): sensitive
viability reduction at highest dose (CCRF-SB cells; 1000 nM): less than that observed after treatment with 100 nM
concentration of greatest viability reduction (CCRF-SB cells; 1 to 1000 nM): 100 nM
viability response over dose range (CCRF-SB cells; 1 to 1000 nM, 6 days): dose-dependent viability response
sensitivity (viability) (MEC-1 cells; 100 nM): sensitive
viability reduction at highest dose (MEC-1 cells; 1000 nM): less than that observed after treatment with 100 nM
concentration of greatest viability reduction (MEC-1 cells; 1 to 1000 nM): 100 nM
viability response over dose range (MEC-1 cells; 1 to 1000 nM, 6 days): dose-dependent viability response
sensitivity (viability) (MEC-2 cells; 100 nM): sensitive
viability response over dose range (MEC-2 cells; 1 to 1000 nM, 6 days): sensitive at all doses tested
fraction of cells with supernumerary foci (3-10 per cell) [4]: significant increase
H2AX foci ([4]; αCD40 and IL-4): accumulation of H2AX foci
cleavage of PARP-1 or caspase-9 (B cells; 2 days following activation): no cleavage of PARP-1 or caspase-9 was observed
cleaved PARP-1 and caspase-9 (B cells; 3 days): not due to C-1523 treatment specifically

Source: patent publication US10927075B2, “Compositions and methods relating to the treatment of cancer, autoimmune disease, and neurodegenerative disease” (THE JACKSON LABORATORY, priority 2014, dated 2021)
